Assays:
A2780 = experiment: Cytotoxicity propidium iodide assay, A2780; format: cell-based; conditions: Homo sapiens; A2780 (ovarian), 48 hours treatment; read-out: IC50 Values in μM, C1a
Summary of the method: (§1)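 Cells were seeded at 3000/well and allowed 18-24 h at 37 °C/5% CO2, then exposed to a compound dilution series for 48 h. After a PBS wash, propidium iodide was added and plates were frozen overnight, thawed and read by fluorescence. Viability was normalised to untreated wells (100%), and IC50 came from the plotted percentages.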

PC3 = experiment: Cytotoxicity propidium iodide assay, PC3; format: cell-based, human; conditions: Homo sapiens, PC-3; PC3 (prostate), 48 hours treatment; read-out: IC50 Values in μM, C2a
Summary of the method: as §1

MDA MB 468 = experiment: Cytotoxicity propidium iodide assay, MDA MB 468; format: cell-based; conditions: Homo sapiens; MDA MB 468 (breast), 48 hours treatment; read-out: IC50 Values in μM, C3b
Summary of the method: as §1

MCF7 = experiment: Cytotoxicity propidium iodide assay, MCF7; format: cell-based; conditions: Homo sapiens; MCF7 (breast), 48 hours treatment; read-out: IC50 Values in μM, C3d
Summary of the method: as §1

LN18 = experiment: Cytotoxicity propidium iodide assay, LN18; format: cell-based; conditions: Homo sapiens, LN-18; LN18 (glioblastoma), 48 hours treatment; read-out: IC50 Values in μM, C5b
Description: (§2) The assay was designed as in the reference, Anticancer Drugs, 2002, 13, 1-8, the disclosure of which is incorporated herein by reference for the teaching of the assay.
(§3) Cells from cell lines (ATCC) as mentioned in the table given below were seeded at a density of 3000 cells/well in a white opaque 96-well plate. Following incubation at 37° C./5% CO2 for a period of 18-24 hours, the cells were treated with various concentrations (stock solution was prepared in DMSO and subsequent dilutions were made in media as per ATCC guidelines) of the compounds of the present invention for a period of 48 hours. At the end of treatment, the culture medium was discarded, the cells were washed with 1×PBS and 200 μL of […] propidium iodide was added to each well. The plates were frozen at […] overnight. For analysis, the plates were warmed to RT, allowed to thaw and were read in PoleStar fluorimeter with the fluorescence setting. The percentage of viable cells in the non-treated set of wells was considered to be 100 and the percentage viability following treatment was calculated accordingly. IC50 values were calculated from graphs plotted using these percentages. IC50 values for certain compounds of present invention are depicted in Table 1 and % Inhibition of certain compounds of present invention are depicted in Table 2.

hPBMC [1] = experiment: MTS toxicity assay in parallel to Con-A-induced IFN-γ assay; format: cell-based, human; conditions: Con-A experiment
Description: Peripheral blood was collected from normal healthy volunteers after informed consent. Peripheral blood mononuclear cells (hPBMC) were harvested using Ficoll-Hypaque density gradient centrifugation (1.077 g/mL; Sigma Aldrich). hPBMCs were resuspended in RPMI 1640 culture medium (Gibco BRL, Pasley, UK) containing 10% FCS, 100 U/mL penicillin (Sigma Chemical Co. St Louis, Mo.) and […] streptomycin (Sigma Chemical Co. St Louis, Mo.) at 1×10^6 cells/mL. 1×10^5 hPBMCs/well were pre-treated with 0.025 μM of compounds of present invention or 0.5% DMSO (vehicle control) for 30 minutes at 37° C. Subsequently, these cells were stimulated with 1 μg/mL concanavalin A (Sigma Chemical Co., St. Louis, Mo.). Following 18 hours of incubation at 37° C., supernatants were collected and stored at −70° C. until assayed for human IFN-γ by ELISA as described by the manufacturer (OptiEIA ELISA sets, BD BioSciences). In every experiment, cyclosporin (1 μM) was used as a positive control for inhibiting induced IFN-γ production. In all experiments, the toxicity of test compounds was ascertained, in parallel, using the MTS (3-(4,5-dimethylthiazol-2-yl)-5-(3-carboxymethoxyphenyl)-2-(4-sulfonyl)-2H-tetrazolium) assay as described in Am. J. Physiol. Cell Physiol., 2003, 285, C813-C822.

TNF-α = experiment: Anti-CD3 mAb and anti-CD28 mAb-induced cytokine production assay, TNF-α; format: cell-based; conditions: Homo sapiens, hPBMC, anti-CD3/anti-CD28, 18 hours
Description: (§4) Anti-CD3 mAb and Anti-CD28 mAb-Induced Cytokine Production Assay
(§5) Preparation of anti-CD3/anti-CD28 coated plates: 96 well plates were coated with goat anti-mouse IgG, Fc (Millipore) at a concentration of 16.5 μg/mL in coating buffer ([…] NaHCO3, 3.56 g Na2CO3, pH 9.5). Following overnight incubation at 4° C., the plates were washed and then incubated with anti-CD3 (3.5 μg/mL; R&D Systems) and anti-CD28 (35 ng/mL; R&D Systems) cocktail for 3 hours. Subsequently, the plates were washed, and used for hPBMC stimulation.
(§6) hPBMC stimulation: Peripheral blood was collected from normal healthy volunteers after informed consent. Peripheral blood mononuclear cells (hPBMC) were harvested using Ficoll-Hypaque density gradient centrifugation (1.077 g/mL; Sigma Aldrich). hPBMCs were resuspended in RPMI 1640 culture medium (Gibco BRL, Pasley, UK) containing 10% FCS, 100 U/mL penicillin (Sigma Chemical Co. St Louis, Mo.) and […] streptomycin (Sigma Chemical Co. St Louis, Mo.) at 1.25×10^6 cells/mL of assay medium. 2.5×10^5 hPBMCs were added per well of 96-well plate coated with or without anti-CD3/anti-CD28 mAbs. Simultaneously, 0.025 μM of compounds of the present invention or 0.5% DMSO (vehicle control) were added to appropriate wells. The cells were then incubated for 18 hours at 37° C., 5% CO2 following which supernatants were collected, stored at […] and assayed later for TNF-α, IL-6 and IFN-γ by ELISA (OptiEIA ELISA sets; BD Biosciences). In every experiment, each condition was run in triplicate wells. In all experiments, the toxicity of test compounds was ascertained, in parallel, using the MTS (3-(4,5-dimethylthiazol-2-yl)-5-(3-carboxymethoxyphenyl)-2-(4-sulfonyl)-2H-tetrazolium) assay as described in Am. J. Physiol. Cell Physiol., 2003, 285, C813-C822.

IL-6 = experiment: Anti-CD3 mAb and anti-CD28 mAb-induced cytokine production assay, IL-6; format: cell-based; conditions: Homo sapiens, hPBMC, anti-CD3/anti-CD28, 18 hours
Description: as §4, §5, §6

IFN-γ = experiment: Anti-CD3 mAb and anti-CD28 mAb-induced cytokine production assay, IFN-γ; format: cell-based; conditions: Homo sapiens, hPBMC, anti-CD3/anti-CD28, 18 hours
Description: as §4, §5, §6

hPBMC [2] = experiment: MTS toxicity assay in parallel to anti-CD3/anti-CD28 cytokine assay; format: cell-based, human; conditions: anti-CD3/anti-CD28 experiment
Description: as §6

K562 = experiment: Cytotoxicity propidium iodide assay, K562; format: cell-based; conditions: Homo sapiens; K562 (CML), 48 hours treatment; read-out: IC50 Values in μM, C6a
Summary of the method: as §1

T315I = experiment: Cytotoxicity propidium iodide assay, T315I; format: cell-based; conditions: T315I (CML), 48 hours treatment; read-out: IC50 Values in μM, C6b
Description: as §2, §3

Cn1c(=O)n(-c2ccc(C(C)(C)C#N)nc2)c2c3cc(-c4cnc5ccccc5c4)ccc3ncc21 [Example 2, 2-Methyl-2-(5-(3-methyl-2-oxo-8-(quinolin-3-yl)-2,3-dihydro-1H-imidazo[4,5-c]quinolin-1-yl)pyridin-2-yl)propanenitrile]
IC50 (A2780): 0.024 µM | IC50 (PC3): 0.068 µM | IC50 (MDA MB 468): 0.3 µM | IC50 (MCF7): 0.09 µM | IC50 (LN18): 0.33 µM | % Toxicity at 0.025 μM (hPBMC [1]): 12% | inhibition at 0.025 µM (TNF-α): 63% | inhibition at 0.025 µM (IL-6): 43% | inhibition at 0.025 µM (IFN-γ): 71% | % Toxicity at 0.025 μM (hPBMC [2]): 12%

Cn1c(=O)n(-c2ccc(C(C)(C)C#N)nc2)c2c3cc(-c4cnc(N)c(C(F)(F)F)c4)ccc3ncc21 [Example 3, 2-(5-(8-(6-Amino-5-(trifluoromethyl)pyridin-3-yl)-3-methyl-2-oxo-2,3-dihydro-1H-imidazo[4,5-c]quinolin-1-yl)pyridin-2-yl)-2-methylpropanenitrile]
IC50 (A2780): < 0.005 µM | IC50 (PC3): 0.005 µM | IC50 (MDA MB 468): 0.06 µM | IC50 (MCF7): 0.026 µM | IC50 (LN18): 0.144 µM | IC50 (K562): 0.056 µM | IC50 (T315I): 0.32 µM | % Toxicity at 0.025 μM (hPBMC [1]): 21% | inhibition at 0.025 µM (TNF-α): 92% | inhibition at 0.025 µM (IL-6): 84% | inhibition at 0.025 µM (IFN-γ): 93% | % Toxicity at 0.025 μM (hPBMC [2]): 24%

CC(C)(C#N)c1ccc(-n2c(=O)n(CC#N)c3cnc4ccc(-c5cnc(N)c(C(F)(F)F)c5)cc4c32)cn1 [Example 16, 2-(5-(8-(6-Amino-5-(trifluoromethyl)pyridin-3-yl)-3-(cyanomethyl)-2-oxo-2,3-dihydro-1H-imidazo[4,5-c]quinolin-1-yl)pyridin-2-yl)-2-methylpropanenitrile]
IC50 (A2780): 0.013 µM | IC50 (PC3): 0.025 µM | IC50 (MDA MB 468): 0.013 µM | IC50 (MCF7): 0.03 µM | IC50 (LN18): 0.44 µM | IC50 (K562): 0.4 µM | IC50 (T315I): 2.13 µM | % Toxicity at 0.025 μM (hPBMC [1]): 3% | inhibition at 0.025 µM (TNF-α): 81% | inhibition at 0.025 µM (IL-6): 75% | inhibition at 0.025 µM (IFN-γ): 80% | % Toxicity at 0.025 μM (hPBMC [2]): 0%

COc1ccc(-n2c(=O)n(C)c3cnc4ccc(-c5cnc(N)c(C(F)(F)F)c5)cc4c32)cn1 [Example 19, 8-(6-Amino-5-(trifluoromethyl)pyridin-3-yl)-1-(6-methoxypyridin-3-yl)-3-methyl-1H-imidazo[4,5-c]quinolin-2(3H)-one]
IC50 (A2780): < 0.01 µM | IC50 (PC3): 0.006 µM | IC50 (MDA MB 468): 0.18 µM | IC50 (MCF7): 0.054 µM | IC50 (LN18): 0.096 µM | IC50 (K562): 0.056 µM | IC50 (T315I): 0.049 µM | % Toxicity at 0.025 μM (hPBMC [1]): 18% | inhibition at 0.025 µM (TNF-α): 87% | inhibition at 0.025 µM (IL-6): 86% | inhibition at 0.025 µM (IFN-γ): 87% | % Toxicity at 0.025 μM (hPBMC [2]): 19%
